Measured values taken from patent US20260250320A1, “LIPIDATED PEPTIDE INHIBITORS OF INTERLEUKIN-23 RECEPTOR” (Janssen Pharmaceutica NV, priority 2023, published 2026).
*1 amine or outer side, *2 acyl side, *3 side chain or, on linkers, in order; H or OH if unused. Where a SMILES comes first, the peptide text is derived from it. Bridges are numbered along the chain shown (N, C = ends). Side-chain parts run from the residue outwards. [ ]: non-standard residue; d: D form. The star is where a group is joined. X42 = O=C(O)CCCCCCCCCCCCCCCCC(=O)N[C@H](CO)CCC(=O)*; CH2CH2OCH2CH2OCH2CH2NMe3+ = C[N+](C)(C)CCOCCOCC*; NH(CH2CH2O)2CH2CH2NMe3+ = C[N+](C)(C)CCOCCOCCN*; Trp(7-Me) = Cc1cccc2c(C[C@H](N)C(=O)O)c[nH]c12; C18 diacid = O=C(O)CCCCCCCCCCCCCCCCC(=O)*; γGlu = O=C(O)[C@H](CCC(=O)[*:2])N[*:1]; 2Nal = N[C@@H](Cc1ccc2ccccc2c1)C(=O)O; AEF = NCCOc1ccc(C[C@H](N)C(=O)O)cc1; X2 = C[N+](C)(C)C[C@@H](CC(=O)O)N*; 3Pal = N[C@@H](Cc1cccnc1)C(=O)O; Lys(Me) = CNCCCC[C@H](N)C(=O)O; NMeK = CN[C@@H](CCCCN)C(=O)O; Pen = CC(C)(S)[C@H](N)C(=O)O; Suc = O=C(CCC(=O)[*:2])[*:1]; Thp = NC1(C(=O)O)CCOCC1; AEEA = NCCOCCOCC(=O)O; Sar = CNCC(=O)O

Tests used:
[1] = test system: IL-23-stimulated phosphorylated STAT3 in peripheral blood mononuclear cells (PBMCs); assay: PBMC pSTAT3 Assay; format: cell-based; settings: PBMCs from healthy donors; 30 min preincubation with peptide; IL-23 5 ng/mL for 30 min; phospho-STAT3 by MSD
Experimental: Cryopreserved peripheral blood mononuclear cells (PBMCs) from healthy donors were thawed and washed twice in ImmunoCult-XF T cell expansion medium (XF-TCEM) supplemented with CTL anti-aggregate wash. The cells were counted, resuspended at 2-6×10^5 cells per mL XF-TCEM supplemented with penicillin/streptomycin and 100 ng/mL […] (BioLegend, 579404), and cultured in tissue culture flasks coated with anti-CD3 (eBioscience, 16-0037-85 or BD Pharmingen, 555329) at 37° C. in 5% CO2. On day 4 of culture, PBMCs were collected, washed twice in RPMI-1640 supplemented with 0.1% BSA (RPMI-BSA), and incubated in RPMI-BSA in upright tissue culture flasks for ~4 hours at 37° C. in 5% CO2. Following this 'starvation,' a total of 6×10^4 cells in 30 μL RPMI-BSA was transferred into each well of a 384-well plate pre-spotted with peptide or DMSO. The cells were incubated for 30 minutes prior to the addition of […] at a final concentration of 5 ng/mL. The cells were stimulated with cytokine for 30 minutes at 37° C. in 5% CO2, transferred onto ice for 10 minutes, and lysed. Cell lysates were stored at -80° C. until phosphorylated STAT3 was measured using the phospho-STAT panel kit (Meso Scale Discovery, […]). Results are provided below. • A: IC50<0.5 nM; • B: 0.5 nM≤IC50<5 nM; • C: 5 nM≤IC50; • ND: Not determined

IL-23R = molecular target: T1, IL-23R (Homo sapiens, UniProt Q5VWK5); assay: IL23R Reporter Assay; format: cell-based; settings: HEK293 cells containing IL-23R, IL-12Rβ1 and STAT-inducible firefly luciferase reporter; 10 ng/mL IL-23 (EC90); 5 h
T1 construct: HEK293 cells containing IL-23R, IL-12Rβ1 and a firefly luciferase reporter gene driven by a STAT-inducible promoter (Promega); host or cells: HEK293
T1 sequence (Q5VWK5 24-629): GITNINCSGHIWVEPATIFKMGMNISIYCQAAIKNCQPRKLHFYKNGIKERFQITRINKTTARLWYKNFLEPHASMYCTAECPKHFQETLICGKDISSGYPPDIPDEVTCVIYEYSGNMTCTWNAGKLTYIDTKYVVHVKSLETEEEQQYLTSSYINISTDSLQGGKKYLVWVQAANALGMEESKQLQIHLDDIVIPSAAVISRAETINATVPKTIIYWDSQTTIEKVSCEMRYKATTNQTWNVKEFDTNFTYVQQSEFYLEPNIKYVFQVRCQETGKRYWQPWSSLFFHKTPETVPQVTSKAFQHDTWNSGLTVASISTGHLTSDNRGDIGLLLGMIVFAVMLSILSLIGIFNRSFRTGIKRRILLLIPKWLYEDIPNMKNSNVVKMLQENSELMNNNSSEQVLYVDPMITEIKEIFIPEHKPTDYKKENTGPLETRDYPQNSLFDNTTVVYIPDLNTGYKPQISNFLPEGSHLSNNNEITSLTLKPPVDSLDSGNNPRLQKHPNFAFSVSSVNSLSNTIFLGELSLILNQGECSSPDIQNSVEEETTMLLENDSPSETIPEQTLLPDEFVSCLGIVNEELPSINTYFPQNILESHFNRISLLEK
Experimental: Compounds were serially diluted in 100% (v/v) DMSO) and plated using an Echo acoustic dispenser (Labcyte) into 1536-well non-treated black assay plates (Corning #9146). 3 μL of HEK293 cells containing IL-23R, IL-12Rβ1 and a firefly luciferase reporter gene driven by a STAT-inducible promoter (Promega) were added to the plates (4000 cells/well), followed by 3 μL of 10 ng/mL IL-23 (equivalent to EC90 concentration). After 5 h at 37° C., 5% CO2, 95% relative humidity, cells were placed at 20° C. and treated with BioGlo reagent (Promega) according to the Manufacturer's instructions. Luminescence was measured on a Pherastar FSX (BMG LabTech). Data were normalized to IL-23 treatment (0% inhibition) and 30 μM of control inhibitor (100% inhibition), and IC50 values were determined using a 4-parameter Hill equation.

IC50 (IL-23R)	Structure (SMILES)	IC50 [1]
–	CC(=O)NCCCC[C@@H]1NC(=O)[C@H](Cc2c[nH]c3c(C)cccc23)NC(=O)[C@H]([C@@H](C)O)NC(=O)[C@H](CCCCNC(=O)COCCOCCNC(=O)COCCOCCNC(=O)CC[C@H](NC(=O)CCCCCCCCCCCCCCCCC(=O)O)C(=O)O)NC(=O)[C@@H](NC(C)=O)C(C)(C)SSC(C)(C)[C@@H](C(=O)N[C@@H](Cc2ccc(OCCN)cc2)C(=O)N[C@@H](Cc2ccc3ccccc3c2)C(=O)NC2(C(=O)N[C@@H](CCCCNC(=O)CCC(=O)N[C@H](CC(=O)O)C[N+](C)(C)C)C(=O)N[C@@H](CC(N)=O)C(=O)N[C@@H](Cc3cccnc3)C(=O)N(C)CC(N)=O)CCOCC2)NC1=O [compound 14, MeCO-Pen(3)-K(PEG2PEG2gEC18OH)-T-7MeW-K(Ac)-Pen(3)-AEF-2Nal-THP-K(d)-N-3Pya-Sar-CONH2] (Ac-[Pen]K([AEEA-AEEA-γGlu-C18 diacid])T[Trp(7-Me)]K(Ac)[Pen][AEF][2Nal][Thp]K([Suc-X2])N[3Pal][Sar]-NH2; disulfide 1-6)	< 0.5 nM
–	CC(=O)NCCCC[C@@H]1NC(=O)[C@H](Cc2c[nH]c3c(C)cccc23)NC(=O)[C@H]([C@@H](C)O)NC(=O)[C@H](CC(N)=O)NC(=O)[C@@H](NC(=O)[C@@H](CCCNC(=N)N)NC(C)=O)C(C)(C)SSC(C)(C)[C@@H](C(=O)N[C@@H](Cc2ccc(OCCNC(=O)CCC(=O)N[C@H](CC(=O)O)C[N+](C)(C)C)cc2)C(=O)N[C@@H](Cc2ccc3ccccc3c2)C(=O)NC2(C(=O)N[C@@H](CCC(=O)O)C(=O)N[C@@H](CC(N)=O)C(=O)N[C@@H](Cc3cccnc3)C(=O)N(C)[C@@H](CCCCNC(=O)COCCOCCNC(=O)COCCOCCNC(=O)CC[C@H](NC(=O)CCCCCCCCCCCCCCCCC(=O)O)C(=O)O)C(N)=O)CCOCC2)NC1=O [compound 16, MeCO-r-Pen(3)-N-T-7MeW-K(Ac)-Pen(3)-AEF(d)-2Nal-THP-E-N-3Pya-NMeK(PEG2PEG2gEC18OH)-CONH2] (Ac-[dR][Pen]NT[Trp(7-Me)]K(Ac)[Pen][AEF]([Suc-X2])[2Nal][Thp]EN[3Pal][NMeK]([AEEA-AEEA-γGlu-C18 diacid])-NH2; disulfide 2-7)	< 0.5 nM
–	CC(=O)NCCCC[C@@H]1NC(=O)[C@H](Cc2c[nH]c3c(C)cccc23)NC(=O)[C@H]([C@@H](C)O)NC(=O)[C@H](CC(N)=O)NC(=O)[C@@H](NC(=O)[C@@H](CCCCNC(=O)COCCOCCNC(=O)COCCOCCNC(=O)CC[C@@H](CO)NC(=O)CCCCCCCCCCCCCCCCC(=O)O)NC(C)=O)C(C)(C)SSC(C)(C)[C@@H](C(=O)N[C@@H](Cc2ccc(OCCNC(=O)CCC(=O)N[C@H](CC(=O)O)C[N+](C)(C)C)cc2)C(=O)N[C@@H](Cc2ccc3ccccc3c2)C(=O)NC2(C(=O)N[C@@H](CCC(=O)O)C(=O)N[C@@H](CC(N)=O)C(=O)N[C@@H](Cc3cccnc3)C(=O)N(C)CC(N)=O)CCOCC2)NC1=O [compound 17, MeCO-k(PEG2PEG2gEC18OH)-Pen(3)-N-T-7MeW-K(Ac)-Pen(3)-AEF(d)-2Nal-THP-E-N-3Pya-Sar-CONH2] (Ac-[dK]([AEEA-AEEA-X42])[Pen]NT[Trp(7-Me)]K(Ac)[Pen][AEF]([Suc-X2])[2Nal][Thp]EN[3Pal][Sar]-NH2; disulfide 2-7)	< 0.5 nM
–	CC(=O)NCCCC[C@@H]1NC(=O)[C@H](Cc2c[nH]c3c(C)cccc23)NC(=O)[C@H]([C@@H](C)O)NC(=O)[C@H](CC(N)=O)NC(=O)[C@@H](NC(=O)[C@@H](CCCNC(=N)N)NC(C)=O)C(C)(C)SSC(C)(C)[C@@H](C(=O)N[C@@H](Cc2ccc(OCCN)cc2)C(=O)N[C@@H](Cc2ccc3ccccc3c2)C(=O)NC2(C(=O)N[C@@H](CCC(=O)O)C(=O)N[C@@H](CC(N)=O)C(=O)N[C@@H](Cc3cccnc3)C(=O)N(C)CC(=O)N[C@@H](CCCCNC(=O)COCCOCCNC(=O)COCCOCCNC(=O)CC[C@H](NC(=O)CCCCCCCCCCCCCCCCC(=O)O)C(=O)O)C(=O)NCCOCCOCC[N+](C)(C)C)CCOCC2)NC1=O [compound 40, MeCO-r-Pen(3)-N-T-7MeW-K(Ac)-Pen(3)-AEF-2Nal-THP-E-N-3Pya-Sar-K(PEG2PEG2gEC18OH)-CONH(PEG3a)] (Ac-[dR][Pen]NT[Trp(7-Me)]K(Ac)[Pen][AEF][2Nal][Thp]EN[3Pal][Sar]K([AEEA-AEEA-γGlu-C18 diacid])-{NH(CH2CH2O)2CH2CH2NMe3+}; disulfide 2-7)	0.5 to 5 nM
–	CC(=O)NCCCC[C@@H]1NC(=O)[C@H](Cc2c[nH]c3c(C)cccc23)NC(=O)[C@H]([C@@H](C)O)NC(=O)[C@H](CC(N)=O)NC(=O)[C@@H](NC(C)=O)C(C)(C)SSC(C)(C)[C@@H](C(=O)N[C@@H](Cc2ccc(OCCCCC[N+](C)(C)C)cc2)C(=O)N[C@@H](Cc2ccc3ccccc3c2)C(=O)NC2(C(=O)N[C@@H](CCCCNC(=O)COCCOCCNC(=O)COCCOCCNC(=O)CC[C@H](NC(=O)CCCCCCCCCCCCCCCCC(=O)O)C(=O)O)C(=O)N[C@@H](CC(N)=O)C(=O)N[C@@H](Cc3ccccn3)C(=O)N(C)CC(N)=O)CCOCC2)NC1=O [compound 85, MeCO-Pen(3)-N-T-7MeW-K(Ac)-Pen(3)-TMAPF-2Nal-THP-K(PEG2PEG2gEC18OH)-N-3Pya-Sar-CONH2]	< 0.5 nM
–	CC(=O)NCCCC[C@@H]1NC(=O)[C@H](Cc2c[nH]c3c(C)cccc23)NC(=O)[C@H]([C@@H](C)O)NC(=O)[C@H](CC(N)=O)NC(=O)[C@@H](NC(C)=O)C(C)(C)SSC(C)(C)[C@@H](C(=O)N[C@@H](Cc2ccc(OCCCCC[N+](C)(C)C)cc2)C(=O)N[C@@H](Cc2ccc3ccccc3c2)C(=O)NC2(C(=O)N[C@@H](CCCCNC(=O)COCCOCCNC(=O)COCCOCCNC(=O)CC[C@H](NC(=O)CCCCCCCCCCCCCCCCC(=O)O)C(=O)O)C(=O)N[C@@H](N)C(=O)N[C@@H](Cc3ccccn3)C(=O)N(C)CC(N)=O)CCOCC2)NC1=O [compound 86, MeCO-Pen(3)-N-T-7MeW-K(NMecPEG3a)-Pen(3)-AEF-2Nal-THP-K(PEG2PEG2gEC18OH)-N-3Pya-Sar-CONH2]	< 0.5 nM
< 50 nM	CC(=O)N(C)CCCC[C@@H]1NC(=O)[C@H](Cc2c[nH]c3c(C)cccc23)NC(=O)[C@H]([C@@H](C)O)NC(=O)[C@H](CC(=O)N(C)C)NC(=O)[C@@H](NC(=O)COCCOCCNC(=O)COCCOCCNC(=O)CC[C@H](NC(=O)CCCCCCCCCCCCCCCCC(=O)O)C(=O)O)C(C)(C)SSC(C)(C)[C@@H](C(=O)N[C@@H](Cc2ccc(OCCOCCOCC[N+](C)(C)C)cc2)C(=O)N[C@@H](Cc2ccc3ccccc3c2)C(=O)NC2(C(=O)N[C@@H](CCCCN(C)C(C)=O)C(=O)N[C@@H](CC(N)=O)C(=O)N[C@@H](Cc3cccnc3)C(=O)N(C)CC(=O)N(C)C)CCOCC2)NC1=O [compound 155, HOC18gEPEG2PEG2CO-Pen(3)-N(N(Me)2)-T-7MeW-K(NMeAc)-Pen(3)-APEG3F-2Nal-THP-K(NMeAc)-N-3Pya-Sar-CON(Me)2] ({C18 diacid-γGlu-AEEA-AEEA}-[Pen]D(NMe2)T[Trp(7-Me)][Lys(Me)](Ac)[Pen]Y(CH2CH2OCH2CH2OCH2CH2NMe3+)[2Nal][Thp][Lys(Me)](Ac)N[3Pal][Sar]-NMe2; disulfide 1-6)	–
